According to US20230158025A1 (UNIVERSITY OF UTAH RESEARCH FOUNDATION, priority 2020, published 2023):

How the values were obtained:
recombinant human GALK1 = recombinant human GALK1 (Homo sapiens, UniProt P51570); assay: hGALK1 biochemical activity assay (Kinase-Glo Plus, ATP depletion); details: recombinant human GALK1, Kinase-Glo Plus ATP depletion; bracketed figure in the cell, e.g. (−1.2), is not defined in the text shown; read-out: hGALK
Outline: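 Turnover is measured as ATP depletion by Kinase-Glo Plus luminescence after a 1 h room-temperature reaction. Compounds span 11 concentrations, 57.4 μM–0.97 nM, in final 20 mM HEPES pH 8.0 with 5 mM MgCl2. The substrate solution held 35 μM ATP; the added solution held 5 nM human or mouse GALK1 and 100 μM galactose.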

recombinant mouse GALK1 = recombinant mouse GALK1 (Mus musculus, UniProt Q9R0N0); assay: mGALK1 biochemical activity assay (Kinase-Glo Plus, ATP depletion); details: recombinant mouse GALK1, Kinase-Glo Plus ATP depletion; bracketed figure in the cell, e.g. (−1.2), is not defined in the text shown; read-out: mGALK
Outline: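 Recombinant GALK1 (5 nM) with 100 μM galactose; GALK1 turnover read as ATP depletion by Kinase-Glo Plus luminescence. Reaction ran 1 h at room temperature before detection reagent was added.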

PAMPA permeability = details: PAMPA
[1] = aqueous kinetic solubility; details: aqueous kinetic solubility
[2] = rat microsomal stability (RLM); details: microsomal stability half-life, minutes
hGALK1m = biological target: T1, hGALK1m (Homo sapiens, UniProt P51570, E253A/K252A); assay: in vitro hGALK1 activity assay of the structure-based optimisation (Example 12, Tables 17-20); type: biochemical
T1 construct: made in house; host or cells: E. coli HMS174
Protocol: In vitro hGALK1 activity assays were performed as previously described. Liu et al., Bioorg. Med. Chem. Lett. 25(3): 721-727 (2015), which is incorporated by reference herein for the specific teachings thereof. The biochemical assay was performed by coupling the activity of recombinant human or mouse GALK1 to the Kinase-Glo Plus luminescent ATP detection kit, using ATP depletion as a measure of GALK1 turnover. Specifically, three μL/well of ATP substrate solution (35 μM ATP) in assay buffer (20 mM HEPES pH 8.0, 5 mM MgCl2, 60 mM NaCl, 1 mM DTT, 0.01% BSA final concentration) was dispensed into 1536-well assay plates (Greiner, white solid-bottom medium-binding plates). Aliquots of compound (23 nL solubilized in DMSO) were transferred to the assay plates using a Kalypsys 1536-well pintool such that 11 concentrations with 1/3 dilutions ranging from 57.4 μM-0.97 nM are tested. One μL/well of GALK-galactose solution (5 nM GALK1, 100 μM galactose) in assay buffer was then added, yielding a final reaction volume of 4 μL/well. Following a 1-hour room temperature incubation, 4 μL of Kinase-Glo Plus detection reagent was added to provide an ATP-dependent luminescent readout (final assay volume: 8 μL/well). Luminescence was detected using a ViewLux plate reader (PerkinElmer) after a 10-minute incubation, using a 1 second exposure time and 2× binning.
The in vitro hGALK1 activity assay was performed as previously described. Liu et al., Bioorg. Med. Chem. Lett. 25(3): 721-727 (2015). For the measurement of cellular Gal-1P reduction, compounds at different concentrations were added to cultured patient fibroblast at 80% confluency. After incubating the compounds for 16 hours, 10 mM galactose was added to the culture. After another 4 hours, cells were washed with cold PBS buffer 3× and harvested for gal-1P measurement, according to the previously published method. Liu et al., Bioorg. Med. Chem. Lett. 25(3): 721-727 (2015).

[3] = Tables 18-20 and text of Example 12

recombinant mouse GALK1, sequence (Q9R0N0 whole entry): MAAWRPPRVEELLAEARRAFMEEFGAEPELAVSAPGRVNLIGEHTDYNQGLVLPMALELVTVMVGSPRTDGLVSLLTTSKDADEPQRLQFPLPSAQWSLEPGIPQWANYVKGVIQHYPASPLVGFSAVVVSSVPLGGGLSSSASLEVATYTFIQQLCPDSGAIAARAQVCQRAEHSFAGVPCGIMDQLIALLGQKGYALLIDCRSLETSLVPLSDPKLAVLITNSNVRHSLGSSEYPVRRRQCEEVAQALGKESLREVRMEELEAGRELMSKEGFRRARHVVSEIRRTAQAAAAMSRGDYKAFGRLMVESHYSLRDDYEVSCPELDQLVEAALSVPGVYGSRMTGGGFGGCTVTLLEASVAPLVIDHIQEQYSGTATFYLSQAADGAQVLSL
recombinant human GALK1, sequence (P51570 whole entry): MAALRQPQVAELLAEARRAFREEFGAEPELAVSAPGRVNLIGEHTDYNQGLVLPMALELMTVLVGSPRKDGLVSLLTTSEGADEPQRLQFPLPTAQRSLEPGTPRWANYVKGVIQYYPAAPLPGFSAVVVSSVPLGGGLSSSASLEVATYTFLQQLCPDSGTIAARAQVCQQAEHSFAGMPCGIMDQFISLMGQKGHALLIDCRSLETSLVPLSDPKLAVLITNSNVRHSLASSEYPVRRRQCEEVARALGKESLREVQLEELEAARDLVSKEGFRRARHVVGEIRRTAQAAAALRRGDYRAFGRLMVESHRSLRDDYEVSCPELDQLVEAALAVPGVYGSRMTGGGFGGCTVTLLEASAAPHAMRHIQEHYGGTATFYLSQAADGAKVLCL
T1 sequence (P51570 whole entry K252A/E253A): as the sequence (P51570 whole entry) above, with K252A, E253A counted along it

Row | SMILES | IC50 (recombinant human GALK1) [µM] | IC50 (recombinant mouse GALK1) [µM] | Perm. (1 × 10^−6 cm/sec) (PAMPA permeability) | Sol. [1] [µg/mL] | Metab. Stabil. (m) [2] [m] | IC50 (hGALK1m; Tables 18-19 and text of Example 12) [µM] | IC50 (hGALK1m; [3]) [µM]
1 | CCOC(=O)N1C(Nc2nc3ccccc3o2)=NC(c2ccccc2Cl)C(C(=O)Nc2cc(C(=O)O)ccn2)=C1C (stereo not drawn) [Compound 274, 2-(2-(benzo[d]oxazol-2-ylamino)-4-(2-chlorophenyl)-1-(ethoxycarbonyl)-6-methyl-1,4-dihydropyrimidine-5-carboxamido)isonicotinic acid] | 9.68 | 19.3 | <1 1 × 10^−6 cm/sec | >85 | >30 | – | –
2 | CC1=C(C(=O)Nc2cc(C(=O)O)ccn2)C(c2ccccc2Cl)N=C(Nc2nc3ccccc3o2)N1C(=O)c1ccccc1 (stereo not drawn) [Compound 275, 2-(2-(benzo[d]oxazol-2-ylamino)-1-benzoyl-4-(2-chlorophenyl)-6-methyl-1,4-dihydropyrimidine-5-carboxamido)isonicotinic acid] | 3.43 | 7.69 | <1 1 × 10^−6 cm/sec | 73.9 | >30 | – | –
3 | O=C1CC(C(=O)O)CC2=C1C(c1ccccc1Cl)N=C(Nc1nc3ccccc3o1)N2 (stereo not drawn) [Compound 276, 2-(benzo[d]oxazol-2-ylamino)-4-(2-chlorophenyl)-5-oxo-1,4,5,6,7,8-hexahydroquinazoline-7-carboxylic acid] | 3.85 | 6.85 | <1 1 × 10^−6 cm/sec | 52.63 | >30 | – | –
4 | CNC(=O)C1CC(=O)C2=C(C1)NC(Nc1nc3ccccc3o1)=NC2c1ccccc1Cl (stereo not drawn) [Compound 278, 2-(benzo[d]oxazol-2-ylamino)-4-(2-chlorophenyl)-N-methyl-5-oxo-1,4,5,6,7,8-hexahydroquinazoline-7-carboxamide] | 6.11 | 6.85 | 430.36 1 × 10^−6 cm/sec | <1 | >30 | – | –
5 | O=C1CC(C(=O)NCCO)CC2=C1C(c1ccccc1Cl)N=C(Nc1nc3ccccc3o1)N2 (stereo not drawn) [Compound 279, 2-(benzo[d]oxazol-2-ylamino)-4-(2-chlorophenyl)-N-(2-hydroxyethyl)-5-oxo-1,4,5,6,7,8-hexahydroquinazoline-7-carboxamide] | 4.85 | 5.44 | <2 1 × 10^−6 cm/sec | 28.98 | >30 | – | –
6 | COCCNC(=O)C1CC(=O)C2=C(C1)NC(Nc1nc3ccccc3o1)=NC2c1ccccc1Cl (stereo not drawn) [Compound 280, 2-(benzo[d]oxazol-2-ylamino)-4-(2-chlorophenyl)-N-(2-methoxyethyl)-5-oxo-1,4,5,6,7,8-hexahydroquinazoline-7-carboxamide] | 4.85 | 4.85 | 747.27 1 × 10^−6 cm/sec | 4.23 | 10.16 | – | –
7 | O=C1CC(C(=O)Nc2nncs2)CC2=C1C(c1ccccc1Cl)N=C(Nc1nc3ccccc3o1)N2 (stereo not drawn) [Compound 281, 2-(benzo[d]oxazol-2-ylamino)-4-(2-chlorophenyl)-5-oxo-N-(1,3,4-thiadiazol-2-yl)-1,4,5,6,7,8-hexahydroquinazoline-7-carboxamide] | 6.85 | 12.2 | <5 1 × 10^−6 cm/sec | 1.23 | >30 | – | –
8 | O=C1CC(C(=O)N2CCNCC2)CC2=C1C(c1ccccc1Cl)N=C(Nc1nc3ccccc3o1)N2 (stereo not drawn) [Compound 282, 2-(benzo[d]oxazol-2-ylamino)-4-(2-chlorophenyl)-7-(piperazine-1-carbonyl)-4,5,6,8-tetrahydroquinazolin-5(1H)-one] | 6.85 | 7.69 | <4.7 1 × 10^−6 cm/sec | 23.88 | 30 | – | –
9 | O=C(O)CNC(=O)C1CC(=O)C2=C(C1)NC(Nc1nc3ccccc3o1)=NC2c1ccccc1Cl (stereo not drawn) [Compound 283, (2-(benzo[d]oxazol-2-ylamino)-4-(2-chlorophenyl)-5-oxo-1,4,5,6,7,8-hexahydroquinazoline-7-carbonyl)glycine] | 3.43 | 4.85 | <1 1 × 10^−6 cm/sec | 58.23 | >30 | – | –
10 | CN(C)CCNC(=O)C1CC(=O)C2=C(C1)NC(Nc1nc3ccccc3o1)=NC2c1ccccc1Cl (stereo not drawn) [Compound 284, 2-(benzo[d]oxazol-2-ylamino)-4-(2-chlorophenyl)-N-(2-(dimethylamino)ethyl)-5-oxo-1,4,5,6,7,8-hexahydroquinazoline-7-carboxamide] | 12.2 | 12.2 | <9.8 1 × 10^−6 cm/sec | 61.78 | >30 | – | –
11 | CC1=C(C(=O)Nc2cc(C(=O)O)ccn2)C(c2ccccc2Cl)N=C(Nc2nc3ccccc3o2)N1 (stereo not drawn) [R-enantiomer of Compound 194] | – | – | – | – | – | 15 | –
12 | CC1=C(C(=O)NCc2cnn(C)c2)[C@@H](c2ccc(C)cc2Cl)N=C(Nc2nc3cccc(N)c3o2)N1 [S-enantiomer of Compound 83] | – | – | – | – | – | – | 0.029
13 | CC1=C(C(=O)Nc2cc(C(=O)O)ccn2)[C@@H](c2ccccc2Cl)N=C(Nc2nc3ccccc3o2)N1 [S-enantiomer of Compound 194] | – | – | – | – | – | – | 0.3

Next, values leading:

Row | IC50 (recombinant human GALK1) [µM] | IC50 (recombinant mouse GALK1) [µM] | Perm. (1 × 10^−6 cm/sec) (PAMPA permeability) | Sol. [1] [µg/mL] | Metab. Stabil. (m) [2] [m] | IC50 (hGALK1m; Tables 18-19 and text of Example 12) [µM] | IC50 (hGALK1m; [3]) [µM] | SMILES
14 | 12.2 | 21.7 | 83.8 1 × 10^−6 cm/sec | <1 | >30 | – | – | CC1=C(C(=O)Nc2nncs2)C(c2ccccc2C)N=C(Nc2nc3ccccc3o2)N1 (stereo not drawn) [Compound 267, 2-(benzo[d]oxazol-2-ylamino)-6-methyl-N-(1,3,4-thiadiazol-2-yl)-4-(o-tolyl)-1,4-dihydropyrimidine-5-carboxamide]
15 | 7.69 | 19.3 | 27.4 1 × 10^−6 cm/sec | 11.4 | >30 | – | – | CC1=C(C(=O)Nc2nncs2)C(c2n[nH]cc2Br)N=C(Nc2nc3ccccc3o2)N1 (stereo not drawn) [Compound 268, 2-(benzo[d]oxazol-2-ylamino)-4-(4-bromo-1H-pyrazol-3-yl)-6-methyl-N-(1,3,4-thiadiazol-2-yl)-1,4-dihydropyrimidine-5-carboxamide]
16 | 13.7 | 17.2 | 19.8 1 × 10^−6 cm/sec | <1 | >30 | – | – | COc1ccc(Cl)c(C2N=C(Nc3nc4ccccc4o3)NC(C)=C2C(=O)Nc2nncs2)c1 (stereo not drawn) [Compound 269, 2-(benzo[d]oxazol-2-ylamino)-4-(2-chloro-5-methoxyphenyl)-6-methyl-N-(1,3,4-thiadiazol-2-yl)-1,4-dihydropyrimidine-5-carboxamide]
17 | 6.11 | 10.9 | 2.9 1 × 10^−6 cm/sec | <1 | >30 | – | – | CC1=C(C(=O)Nc2nncs2)C(c2cc(Cl)ccc2Cl)N=C(Nc2nc3ccccc3o2)N1 (stereo not drawn) [Compound 270, 2-(benzo[d]oxazol-2-ylamino)-4-(2,5-dichlorophenyl)-6-methyl-N-(1,3,4-thiadiazol-2-yl)-1,4-dihydropyrimidine-5-carboxamide]
18 | 8.63 | 24.3 | 417.5 1 × 10^−6 cm/sec | 3.5 | >30 | – | – | CC1=C(C(=O)Nc2nncs2)C2(CCSCC2)N=C(Nc2nc3ccccc3o2)N1 [Compound 271, 2-(benzo[d]oxazol-2-ylamino)-4-methyl-N-(1,3,4-thiadiazol-2-yl)-9-thia-1,3-diazaspiro[5.5]undeca-1,4-diene-5-carboxamide]
